Measured values taken from patent US20260183274A1, “PDK1 REGULATORY COMPOUND AND COMPOSITION CONTAINING THE SAME” (PROVIBIO CO., LTD., priority 2024, published 2026).

Assays:
Type in all cases: cell-based
[1] = test system: T cells isolated from mouse spleens; experiment: T cell proliferation inhibition (CFSE flow cytometry, anti-CD3/anti-CD28 stimulation); settings: mouse spleen T cells, 3 days; for inhibition at 0.01 µM / inhibition at 0.1 µM / inhibition at 1 µM / inhibition at 10 µM / inhibition at 30 µM / inhibition at 50 µM: Mus musculus, T-cell, 72 h, read-out: Proliferation inhibition rate (%)
How it was run: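 Proliferation inhibition (%) came from flow cytometry of CFSE dilution after 3 days' culture at 37 °C with compound (10 nM, 100 nM, 1, 10, 30, 50 μM; triplicate wells). Cells were magnetically purified T cells from C57BL/6 mouse spleens, 2×10^5 per well, stimulated with 0.5 μg/mL each anti-CD3 and anti-CD28.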

[2] = test system: Human Head and Neck cancer, Fadu; experiment: Relative cell viability CCK-8, Fadu; settings: Fadu cells, relative to untreated cells
Description: Human-derived head and neck cancer cell line Fadu and osteosarcoma cell line Saos-2 were cultured in MEM medium containing 10% FBS, 100 U/mL penicillin, and 100 μg/mL streptomycin.
Following stabilization, the cells were harvested using Trypsin-EDTA treatment, centrifuged at 1,200 rpm for 3 minutes, the supernatant was removed, and the cells were resuspended in the same medium. They were then seeded into a 96-well plate (Costar 96-well cell culture plate, Corning) at 100 μL per well, and the conditions were adjusted as indicated in Table 5.
The cells were cultured in a 5% CO2 incubator at 37° C. for 24 hours, and after stabilization of the cells, each plate was washed with 200 μL of PBS per well and treated with 50 μL of culture medium per well.
After that, 10 μL of CCK-8 was added to each well, and the plate was incubated again at 37° C. in a 5% CO2 incubator for 2 hours.
In other words, when the survival rate of untreated cells (DMSO) is set at 100%, the relative cell survival rate in each group treated with the drug at different concentrations is indicated.

[3] = test system: Human B Lymphocyte cell line, SU-DHL-8; experiment: Relative cell viability CCK-8, SU-DHL-8; settings: 48 hours, untreated (DMSO) = 100%; for viability at 1 µM / viability at 10 µM / viability at 30 µM / viability at 50 µM: Homo sapiens, SU-DHL-8, 48 h; for viability at 1 µM: read-out: Relative cell viability (%), SU-DHL-8, 1 μM; for viability at 10 µM: read-out: Relative cell viability (%), SU-DHL-8, 10 μM; for viability at 30 µM: read-out: Relative cell viability (%), SU-DHL-8, 30 μM; for viability at 50 µM: read-out: Relative cell viability (%), SU-DHL-8, 50 μM
How it was run: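 Cells grown in RPMI-1640 with 10% FBS, treated with compound at several concentrations, then given CCK-8 for 4 h at 37° C. Viability expressed as percent of DMSO-treated cells.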

| Compound | inhibition at 0.01 µM ([1]; compound 10 nM) | inhibition at 0.1 µM ([1]; compound 100 nM) | inhibition at 1 µM ([1]; compound 1 μM) | inhibition at 10 µM ([1]; compound 10 μM) | inhibition at 30 µM ([1]; compound 30 μM) | inhibition at 50 µM ([1]; compound 50 μM) | viability at 1 µM ([2]; Homo sapiens, FaDu, 1 μM) | viability at 10 µM ([2]; Homo sapiens, FaDu, 10 μM) | viability at 30 µM ([2]; Homo sapiens, FaDu, 30 μM) | viability at 1 µM [3] | viability at 10 µM [3] | Proliferation inhibition rate (%) ([1]; compound 10 nM) | Proliferation inhibition rate (%) ([1]; compound 100 nM) | Proliferation inhibition rate (%) ([1]; compound 1 μM) | Proliferation inhibition rate (%) ([1]; compound 10 μM) | Proliferation inhibition rate (%) ([1]; compound 30 μM) | Proliferation inhibition rate (%) ([1]; compound 50 μM) | Relative cell viability (%) ([2]; 1 μM) | Relative cell viability (%) ([2]; 10 μM) | Relative cell viability (%) ([2]; 50 μM) | also measured |
| --- | --- | --- | --- | --- | --- | --- | --- | --- | --- | --- | --- | --- | --- | --- | --- | --- | --- | --- | --- | --- | --- |
| Nc1ncccc1C(=O)NCCCCCCCCCCCCN1CCC(c2ccc([N+](=O)[O-])cc2)CC1 [Compound 44, 2-Amino-N-(12-(4-(4-nitrophenyl)piperidin-1-yl)dodecyl)nicotinamide] | -6.21% | 100% | 100% | 100% | 100% | 100% | 1.22% | 5.89% | 2.94% | 6.14% | 4.91% | – | – | – | – | – | – | – | – | – | viability at 30 µM [3]: 2.54%; viability at 50 µM [3]: 1.41% |
| Nc1ncccc1C(=O)NCCCCCCCCCCCCN1CCC(O)CC1 [Compound 47, 2-Amino-N-(12-(4-hydroxypiperidin-1-yl)dodecyl)nicotinamide] | -28.8% | 100% | 100% | 100% | 100% | 100% | 10% | 19.9% | 7.34% | 11.7% | 10% | – | – | – | – | – | – | – | – | – | viability at 50 µM ([2]; Homo sapiens, FaDu, 50 μM): 5.02%; viability at 30 µM [3]: 9.4%; viability at 50 µM [3]: 8.33% |
| Cl.Nc1ncccc1C(=O)NCCCCCCCCCCCCN1CC[C@H](N)C1 [Compound 50, (S)-2-Amino-N-(12-(3-aminopyrrolidin-1-yl)dodecyl) nicotinamide hydrochloride] | – | – | – | – | – | – | – | – | – | – | – | −7.48% | 100.00% | 100.00% | 100.00% | 100.00% | 100.00% | 20.78% | 26.55% | 7.05% | Relative cell viability (%) ([2]; 30 μM): 23.42%; Relative cell viability (%), SU-DHL-8 ([3]; 1 μM): 9.20%; Relative cell viability (%), SU-DHL-8 ([3]; 10 μM): 8.18%; Relative cell viability (%), SU-DHL-8 ([3]; 30 μM): 6.18%; Relative cell viability (%), SU-DHL-8 ([3]; 50 μM): 4.31% |
| Cc1ccc(OC2CCN(CCCCCCCCCCCCNC(=O)c3cccnc3N)CC2)cc1 [Compound 51, 2-Amino-N-(12-(4-(p-tolyloxy)piperidin-1-yl)dodecyl) nicotinamide] | – | – | – | – | – | – | – | – | – | – | – | 0.77% | 16.10% | 100.00% | 100.00% | 100.00% | 100.00% | 24.93% | 17.30% | 7.69% | – |
| Nc1ncccc1C(=O)NCCCCCCCCCCCCN1CCN(CCO)CC1 [Compound 54, 2-Amino-N-(12-(4-(2-hydroxyethyl)piperazin-1-yl)dodecyl) nicotinamide] | – | – | – | – | – | – | – | – | – | – | – | −43.03% | 100.00% | 100.00% | 100.00% | 100.00% | 100.00% | 24.97% | 33.03% | 18.65% | Relative cell viability (%) ([2]; 30 μM): 32.41%; Relative cell viability (%), SU-DHL-8 ([3]; 1 μM): 6.42%; Relative cell viability (%), SU-DHL-8 ([3]; 10 μM): 4.05%; Relative cell viability (%), SU-DHL-8 ([3]; 30 μM): 3.26%; Relative cell viability (%), SU-DHL-8 ([3]; 50 μM): 2.23% |
